Results: ChEMBL document CHEMBL1134932, “Bridged bicyclic vasopressin receptor antagonists with V(2)-selective or dual V(1a)/V(2) activity” (Bioorg Med Chem Lett, 2002)

Experiments:
Vasopressin V2 receptor [1] = biological target: T1, Vasopressin V2 receptor (Homo sapiens, UniProt P30518); assay: Inhibition of [3H]Arg-vasopressin binding to recombinant human vasopressin V2 receptor
Vasopressin V1a receptor [2] = biological target: T2, Vasopressin V1a receptor (Homo sapiens, UniProt P37288); assay: Inhibition of [3H]Arg-vasopressin binding to recombinant human vasopressin V1a receptor at 0.1 uM
Target sequence in this assay (P37288 whole entry, looked up): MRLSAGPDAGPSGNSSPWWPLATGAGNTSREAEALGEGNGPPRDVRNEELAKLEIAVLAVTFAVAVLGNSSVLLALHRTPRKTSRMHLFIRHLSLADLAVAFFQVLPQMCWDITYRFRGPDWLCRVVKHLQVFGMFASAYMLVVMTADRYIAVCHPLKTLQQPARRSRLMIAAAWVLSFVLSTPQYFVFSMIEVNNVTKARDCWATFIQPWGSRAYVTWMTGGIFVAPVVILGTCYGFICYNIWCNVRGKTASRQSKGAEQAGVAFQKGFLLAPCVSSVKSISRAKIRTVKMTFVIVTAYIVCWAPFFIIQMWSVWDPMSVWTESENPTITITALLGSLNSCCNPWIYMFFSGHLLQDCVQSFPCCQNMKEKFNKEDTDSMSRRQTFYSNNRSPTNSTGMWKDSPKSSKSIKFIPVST

Vasopressin V1a receptor [3] = biological target: T2, Vasopressin V1a receptor; assay: Inhibition of [3H]Arg-vasopressin binding to recombinant human vasopressin V1a receptor
Target sequence in this assay (P37288 whole entry): as the sequence (P37288 whole entry, looked up) above

Vasopressin V1a receptor [4] = biological target: T2, Vasopressin V1a receptor; assay: Inhibition of AVP mediated activation of human vasopressin V1a receptor expressed in HEK293 cells; assay type: cell-based
Target sequence in this assay (P37288 whole entry): as the sequence (P37288 whole entry, looked up) above

Vasopressin V2 receptor [5] = biological target: T1, Vasopressin V2 receptor; assay: Inhibition of AVP mediated activation of human vasopressin V2 receptor expressed in HEK293 cells; assay type: cell-based
Rattus norvegicus [6] = assay: The clearance rate in mature male rat at a intravenous dose of 3 mg/kg; assay type: ADME, organism-based; set-up: dose 3 mg/kg, route intravenous; conditions: in vivo
[7] = Oral bioavailability in rat (mature male) (dose 30 mg/kg); assay type: ADME, organism-based; conditions: in vivo
[8] = The maximum plasma levels for the compounds were determined by LC-MS.; assay type: ADME, organism-based; conditions: rat
Cytochrome P450 2C9 = Cytochrome P450 2C9 (Homo sapiens, UniProt P11712); assay: Inhibition of cytochrome P450 2C9; assay type: ADME
Cytochrome P450 2C9, sequence (P11712 whole entry): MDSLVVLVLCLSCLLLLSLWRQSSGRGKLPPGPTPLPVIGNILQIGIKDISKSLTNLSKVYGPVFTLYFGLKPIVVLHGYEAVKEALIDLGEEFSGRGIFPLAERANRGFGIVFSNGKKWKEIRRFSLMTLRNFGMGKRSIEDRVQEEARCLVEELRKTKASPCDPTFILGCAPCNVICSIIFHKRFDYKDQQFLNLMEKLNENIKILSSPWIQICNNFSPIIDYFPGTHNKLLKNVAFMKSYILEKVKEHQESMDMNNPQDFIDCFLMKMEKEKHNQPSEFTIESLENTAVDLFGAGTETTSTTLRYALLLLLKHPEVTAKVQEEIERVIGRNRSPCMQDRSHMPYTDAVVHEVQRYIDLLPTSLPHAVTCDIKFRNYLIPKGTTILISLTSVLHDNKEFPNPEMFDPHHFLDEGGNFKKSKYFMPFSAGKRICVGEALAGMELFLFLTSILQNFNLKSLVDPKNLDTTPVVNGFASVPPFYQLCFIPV

Rattus norvegicus [9] = assay: Effective dose for reversal of AVP-Induced Hypertension in pentobarbital-anesthetized male Long-Evans rats.; assay type: functional
Rattus norvegicus [10] = assay: Excretion of Creatinine at a dose of 10 mg/kg in male Sprague-Dawley rats; assay type: functional
Rattus norvegicus [11] = assay: Excretion of Creatinine at a dose of 1 mg/kg in male Sprague-Dawley rats; assay type: functional
Rattus norvegicus [12] = assay: Excretion of Creatinine at a dose of 3 mg/kg in male Sprague-Dawley rats; assay type: functional
Rattus norvegicus [13] = assay: Excretion of potassium at a dose of 1 mg/kg in male Sprague-Dawley rats; assay type: functional
Rattus norvegicus [14] = assay: Excretion of potassium at a dose of 3 mg/kg in male Sprague-Dawley rats; assay type: functional
Rattus norvegicus [15] = assay: Excretion of sodium at a dose of 10 mg/kg in male Sprague-Dawley rats; assay type: functional
Rattus norvegicus [16] = assay: Excretion of sodium at a dose of 1 mg/kg in male Sprague-Dawley rats; assay type: functional
Rattus norvegicus [17] = assay: Excretion of sodium at a dose of 3 mg/kg in male Sprague-Dawley rats; assay type: functional
Rattus norvegicus [18] = assay: The diuretic effect in 10 male Sprague-Dawley rats after 4 hrs at a dose of 10 mg/kg by oral route; assay type: functional, Urine
Rattus norvegicus [19] = assay: The diuretic effect in 10 male Sprague-Dawley rats after 4 hrs at a dose of 1 mg/kg by oral route; assay type: functional, Urine
Rattus norvegicus [20] = assay: The Urine osmolality in 10 male Sprague-Dawley rats after 4 hrs at a dose of 10 mg/kg by oral route; assay type: functional
Rattus norvegicus [21] = assay: The Urine osmolality in 10 male Sprague-Dawley rats after 4 hrs at a dose of 1 mg/kg by oral route; assay type: functional
Rattus norvegicus [22] = assay: The Urine osmolality in 10 male Sprague-Dawley rats after 4 hrs at a dose of 3 mg/kg by oral route; assay type: functional
[23] = Half life tested in mature male rat at a dose of 30 mg/kg; assay type: ADME, organism-based; set-up: dose 30 mg/kg; conditions: in vivo
Rattus norvegicus [24] = assay: Excretion of potassium at a dose of 10 mg/kg in male Sprague-Dawley rats; assay type: functional
Rattus norvegicus [25] = assay: The diuretic effect in 10 male Sprague-Dawley rats after 4 hrs at a dose of 3 mg/kg by oral route; assay type: functional, Urine
Rattus norvegicus [26] = assay: The diuretic effect in 9 male Sprague-Dawley rats after 4 hrs at a dose of 0.3 mg/kg by oral route; assay type: functional, Urine
Rattus norvegicus [27] = assay: The Urine osmolality in 9 male Sprague-Dawley rats after 4 hrs at a dose of 0.3 mg/kg by oral route; assay type: functional

T1 sequence (P30518 whole entry): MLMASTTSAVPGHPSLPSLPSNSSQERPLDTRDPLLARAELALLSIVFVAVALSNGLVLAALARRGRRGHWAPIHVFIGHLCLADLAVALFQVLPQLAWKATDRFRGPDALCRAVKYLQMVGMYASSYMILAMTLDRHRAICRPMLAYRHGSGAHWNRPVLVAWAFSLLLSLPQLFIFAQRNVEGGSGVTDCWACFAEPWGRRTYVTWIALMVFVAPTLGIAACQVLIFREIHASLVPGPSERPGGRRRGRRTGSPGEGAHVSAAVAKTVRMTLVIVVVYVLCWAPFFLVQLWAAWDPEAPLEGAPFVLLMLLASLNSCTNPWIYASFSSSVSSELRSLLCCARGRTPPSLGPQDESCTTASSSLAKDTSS

Q: Which results are given for `O=C(Nc1ccc(C(=O)N2CC3C4CCC(CC4)N3Cc3ccccc32)c(Cl)c1)c1ccccc1-c1ccccc1` (centres undefined)?
A: IC50 (Vasopressin V2 receptor [1]): 4 nM; inhibition (Vasopressin V1a receptor [2]): 30%

Q: What does the source list for `Cc1ccc(-c2ccccc2C(=O)Nc2ccc(C(=O)N3C[C@@H]4C5CCC(C5)N4Cc4cc(Cl)ccc43)c(Cl)c2)cc1` (some centres undefined)?
A: IC50 (Vasopressin V2 receptor [1]): 30 nM; IC50 (Vasopressin V1a receptor [3]): 35 nM

Q: With `O=C(Nc1ccc(C(=O)N2C[C@@H]3C4CCC(C4)N3Cc3cc(Cl)ccc32)cc1)c1ccccc1F` (some centres undefined) as the molecule, how does the IC50 (Vasopressin V2 receptor [1]) read?
A: 26 nM

Q: What about the Ki (Vasopressin V1a receptor [4]) of the same molecule?
A: 2600 nM

Q: And the IC50 (Vasopressin V1a receptor [3])?
A: 68 nM

Q: And the Ki (Vasopressin V2 receptor [5])?
A: 180 nM

Q: For `Cc1ccc(F)cc1C(=O)Nc1ccc(C(=O)N2Cc3cccn3Cc3ccccc32)c(Cl)c1` [LIXIVAPTAN], which IC50 (Vasopressin V2 receptor [1]) is on record?
A: 5 nM

Q: What about the IC50 (Vasopressin V1a receptor [3]) of the same molecule?
A: 150 nM

Q: What about the Ki (Vasopressin V2 receptor [5]) of the same molecule?
A: 90 nM

Q: What does the source list for `Cc1ccc(-c2ccccc2C(=O)Nc2ccc(C(=O)N3C[C@@H]4C5CCC(C5)N4Cc4cc(Cl)ccc43)cc2)cc1` (some centres undefined)?
A: Clearance (Rattus norvegicus [6]): 2.1 mg/kg/µM/h; bioavailability [7]: 7%; Cmax [8]: 320 nM; IC50 (Cytochrome P450 2C9): 7400 nM; ED50 (Rattus norvegicus [9]): 0.0074 mg/kg; Excretion (Rattus norvegicus [10]): 7.7 mg/dL; Excretion (Rattus norvegicus [11]): 31.4 mg/dL; Excretion (Rattus norvegicus [12]): 16.2 mg/dL; Excretion (Rattus norvegicus [13]): 0.3 m equiv 4hr-1; Excretion (Rattus norvegicus [14]): 0.34 m equiv 4hr-1; Excretion (Rattus norvegicus [15]): 0.52 m equiv 4hr-1; Excretion (Rattus norvegicus [16]): 0.07 m equiv 4hr-1; Excretion (Rattus norvegicus [17]): 0.16 m equiv 4hr-1; Urine volume (Rattus norvegicus [18]): 17.8 mL; Urine volume (Rattus norvegicus [19]): 2.9 mL; Urine osmolality (Rattus norvegicus [20]): 159 mOsmol kg-1; Urine osmolality (Rattus norvegicus [21]): 387 mOsmol kg-1; Urine osmolality (Rattus norvegicus [22]): 226 mOsmol kg-1; Ki (Vasopressin V1a receptor [4]): 23 nM; Ki (Vasopressin V2 receptor [5]): 13 nM; half-life [23]: 2.5 h; Excretion (Rattus norvegicus [24]): 0.64 m equiv 4hr-1; Urine volume (Rattus norvegicus [25]): 5.8 mL

Q: What does the source list for `Cc1cc(F)cc(C(=O)Nc2ccc(C(=O)N3C[C@@H]4C5CCC(CC5)N4Cc4ccccc43)c(Cl)c2)c1`?
A: IC50 (Vasopressin V2 receptor [1]): 19 nM; inhibition (Vasopressin V1a receptor [2]): 15%

Q: Which Clearance (Rattus norvegicus [6]) does the source give for `O=C(Nc1ccc(C(=O)N2C[C@H]3C4CCC(C4)N3Cc3ccccc32)c(Cl)c1)c1ccccc1-c1ccccc1` (some centres undefined) here?
A: 3.3 mg/kg/µM/h

Q: What about the bioavailability [7] of the same molecule?
A: 10%

Q: And the Cmax [8]?
A: 230 nM

Q: And the Urine volume (Rattus norvegicus [18])?
A: 19.5 mL

Q: What about the Urine volume (Rattus norvegicus [19]) of the same molecule?
A: 3.4 mL

Q: And the Urine volume (Rattus norvegicus [26])?
A: 1.4 mL

Q: What about the Urine osmolality (Rattus norvegicus [20]) of the same molecule?
A: 172 mOsmol kg-1

Q: What about the Urine osmolality (Rattus norvegicus [21]) of the same molecule?
A: 303 mOsmol kg-1

Q: What about the Urine osmolality (Rattus norvegicus [22]) of the same molecule?
A: 238 mOsmol kg-1

Q: What about the Urine osmolality (Rattus norvegicus [27]) of the same molecule?
A: 408 mOsmol kg-1

Q: And the inhibition (Vasopressin V1a receptor [2])?
A: 7%

Q: And the Ki (Vasopressin V2 receptor [5])?
A: 30 nM

Q: And the half-life [23]?
A: 2.5 h

Q: What about the Urine volume (Rattus norvegicus [25]) of the same molecule?
A: 9.4 mL

Q: For `O=C(Nc1ccc(C(=O)N2C[C@@H]3C4CCC(C4)N3Cc3cc(Cl)ccc32)cc1)c1ccccc1Cl` (some centres undefined), which IC50 (Vasopressin V2 receptor [1]) is on record?
A: 10 nM

Q: What about the Ki (Vasopressin V1a receptor [4]) of the same molecule?
A: 130 nM

Q: What about the IC50 (Vasopressin V1a receptor [3]) of the same molecule?
A: 5 nM

Q: What about the Ki (Vasopressin V2 receptor [5]) of the same molecule?
A: 32 nM

Q: What does the source list for `O=C(Nc1ccc(C(=O)N2C[C@@H]3C4CCC(C4)N3Cc3ccccc32)c(Cl)c1)c1ccccc1-c1ccccc1` (some centres undefined)?
A: Clearance (Rattus norvegicus [6]): 1.2 mg/kg/µM/h; bioavailability [7]: 14%; Cmax [8]: 650 nM; ED50 (Rattus norvegicus [9]): 0.217 mg/kg; Urine volume (Rattus norvegicus [18]): 29.9 mL; Urine volume (Rattus norvegicus [19]): 6 mL; Urine volume (Rattus norvegicus [26]): 2.5 mL; Urine osmolality (Rattus norvegicus [20]): 138 mOsmol kg-1; Urine osmolality (Rattus norvegicus [21]): 299 mOsmol kg-1; Urine osmolality (Rattus norvegicus [22]): 180 mOsmol kg-1; Urine osmolality (Rattus norvegicus [27]): 444 mOsmol kg-1; Ki (Vasopressin V1a receptor [4]): 130 nM; Ki (Vasopressin V2 receptor [5]): 9 nM; half-life [23]: 5 h; Urine volume (Rattus norvegicus [25]): 15.1 mL

Q: What does the source list for `O=C(Nc1ccc(C(=O)N2C[C@@H]3C4CCC(CC4)N3Cc3cc(Cl)ccc32)cc1)c1ccccc1Cl`?
A: IC50 (Vasopressin V2 receptor [1]): 13 nM; Ki (Vasopressin V1a receptor [4]): 620 nM; IC50 (Vasopressin V1a receptor [3]): 35 nM; Ki (Vasopressin V2 receptor [5]): 520 nM

Q: Which ED50 (Rattus norvegicus [9]) does the source give for `O=C(Nc1ccc(C(=O)N2C[C@@H]3C4CCC(C4)N3Cc3cc(Cl)ccc32)cc1)c1ccccc1C(F)(F)F` (some centres undefined) here?
A: 0.38 mg/kg

Q: And the IC50 (Vasopressin V2 receptor [1])?
A: 7 nM

Q: And the Ki (Vasopressin V1a receptor [4])?
A: 40 nM

Q: And the IC50 (Vasopressin V1a receptor [3])?
A: 4 nM

Q: And the Ki (Vasopressin V2 receptor [5])?
A: 9 nM

Q: With `O=C(Nc1ccc(C(=O)N2CC3C4CCC(CC4)N3Cc3ccccc32)cc1)c1ccccc1-c1ccccc1` (centres undefined) as the molecule, how does the IC50 (Vasopressin V1a receptor [3]) read?
A: ~100 nM
